Measurements taken from PubChem BioAssay AID330 (DTP/NCI, 2004).
“And” between values parts separate entries of the source, which are not always exact repeats. Identical values can stand only once. Toxic doses and inconclusive results are not listed. How the source made its calls: active means survival T/C of 150% or more; inactive means T/C below 125% in these data.

System: P388 leukemia ip, CD2F1 mice, survival T/C
Experiment: NCI In Vivo Anticancer Drug Screen. Data for tumor model P388 Leukemia (intraperitoneal) in CD2F1 (CDF1) mice
Conditions: endpoint: median survival time, higher = longer survival
Method: The antitumor activity of compounds was measured in mice bearing transplantable tumors. Survival or tumor size were measured and the results are expressed as the measurement made in the treated group (T) divided by the measurement made in the vehicle treated control group (C). The tumor model used in this assay is P388 Leukemia (intraperitoneal) in CD2F1 (CDF1) mice

[1] = dose: 50.0 mg/kg/injection, schedule: Q01DX009 (ip), vehicle: saline
[2] = dose: 100.0 mg/kg/injection, schedule: Q01DX009 (ip), vehicle: saline
[3] = dose: 50.0 mg/kg/injection, schedule: Q01DX009 (ip), vehicle: saline with Tween-80
[4] = dose: 100.0 mg/kg/injection, schedule: Q01DX009 (ip), vehicle: saline with Tween-80
[5] = dose: 60.0 mg/kg/injection, schedule: Q01DX005 (ip), vehicle: saline with Tween-80
[6] = dose: 120.0 mg/kg/injection, schedule: Q01DX005 (ip), vehicle: saline with Tween-80
[7] = dose: 240.0 mg/kg/injection, schedule: Q01DX005 (ip), vehicle: saline with Tween-80
[8] = dose: 50.0 mg/kg/injection, schedule: Q01DX005 (ip), vehicle: saline with Tween-80
[9] = dose: 100.0 mg/kg/injection, schedule: Q01DX005 (ip), vehicle: saline with Tween-80

Measured: T/C

COc1ncnc(Sc2ncccn2)c1[N+](=O)[O-]
inactive: dose: 12.5 mg/kg/injection, schedule: Q01DX009 (ip), vehicle: saline 103 % of control and 89 % of control | dose: 25.0 mg/kg/injection, schedule: Q01DX009 (ip), vehicle: saline 103 % of control and 105 % of control | [1] 102 % of control and 104 % of control and 90 % of control | [2] 100 % of control and 123 % of control and 89 % of control | dose: 200.0 mg/kg/injection, schedule: Q01DX009 (ip), vehicle: saline 109 % of control

Brc1ccc(C[N+]23CN4CN(CN(C4)C2)C3)cc1
inactive: [3] 100 % of control | [4] 120 % of control | dose: 100.0 mg/kg/injection, schedule: Q04DX003 (ip), vehicle: saline 110 % of control | dose: 200.0 mg/kg/injection, schedule: Q04DX003 (ip), vehicle: saline 110 % of control

O=C/C(Cl)=C(/Cl)C(=O)O
inactive: dose: 2.5 mg/kg/injection, schedule: Q01DX009 (ip), vehicle: saline with Tween-80 110 % of control and 123 % of control | dose: 5.0 mg/kg/injection, schedule: Q01DX009 (ip), vehicle: saline with Tween-80 117 % of control and 121 % of control | dose: 10.0 mg/kg/injection, schedule: Q01DX009 (ip), vehicle: saline with Tween-80 120 % of control and 121 % of control

CCCCCCOC(=O)C1=C(NC)CCC1
inactive: [1] 106 % of control | [2] 119 % of control

COc1ccc([N+](=O)[O-])cc1NOC(C)=O
inactive: dose: 100.0 mg/kg/injection, schedule: Q04DX003 (ip), vehicle: Klucel (hydroxypropylcellulose) (HPC) 111 % of control | dose: 200.0 mg/kg/injection, schedule: Q04DX003 (ip), vehicle: Klucel (hydroxypropylcellulose) (HPC) 119 % of control | dose: 400.0 mg/kg/injection, schedule: Q04DX003 (ip), vehicle: Klucel (hydroxypropylcellulose) (HPC) 94 % of control

O=C1c2ccccc2C(=O)C1(Br)c1ccccc1
inactive: dose: 100.0 mg/kg/injection, schedule: Q04DX002 (ip), vehicle: saline with Tween-80 99 % of control | dose: 200.0 mg/kg/injection, schedule: Q04DX002 (ip), vehicle: saline with Tween-80 101 % of control

CC(C)(C)c1cc(C(c2ccccc2)(c2ccccc2)c2ccccc2)cc2c1OP(F)(c1ccccc1)(c1ccccc1)N2
inactive: [3] 91 % of control | [4] 95 % of control | dose: 200.0 mg/kg/injection, schedule: Q01DX009 (ip), vehicle: saline with Tween-80 91 % of control

c1cncc(C(Nc2cccc3cccnc23)Nc2cccc3cccnc23)c1
inactive: [5] 94 % of control | [6] 91 % of control | [7] 90 % of control

OC1(C2=COCCO2)CCCCC1
inactive: dose: 60.0 mg/kg/injection, schedule: Q01DX005 (ip), vehicle: saline 105 % of control | dose: 120.0 mg/kg/injection, schedule: Q01DX005 (ip), vehicle: saline 110 % of control | dose: 240.0 mg/kg/injection, schedule: Q01DX005 (ip), vehicle: saline 105 % of control

FC(F)(F)C1(C(F)(F)F)N=CC=CN1
inactive: dose: 50.0 mg/kg/injection, schedule: Q01DX009 (ip), vehicle: distilled water + alcohol 101 % of control | dose: 100.0 mg/kg/injection, schedule: Q01DX009 (ip), vehicle: distilled water + alcohol 95 % of control

CCN(CC)CCOC(C)(C#CC(C)(O)CC)CC (stereo not drawn)
inactive: [8] 100 % of control | [9] 106 % of control

O[C@@H]1c2sccc2C2NC21 (stereo partly drawn)
inactive: dose: 50.0 mg/kg/injection, schedule: Q01DX001 (ip), vehicle: saline 98 % of control | dose: 100.0 mg/kg/injection, schedule: Q01DX001 (ip), vehicle: saline 95 % of control | dose: 200.0 mg/kg/injection, schedule: Q01DX001 (ip), vehicle: saline 98 % of control

COc1ccc2[nH]cc(CCN(C)C)c2c1
inactive: dose: 12.5 mg/kg/injection, schedule: Q01DX009 (ip), vehicle: saline with Tween-80 115 % of control | dose: 16.5 mg/kg/injection, schedule: Q01DX009 (ip), vehicle: saline with Tween-80 113 % of control | dose: 25.0 mg/kg/injection, schedule: Q01DX009 (ip), vehicle: saline with Tween-80 104 % of control | dose: 37.5 mg/kg/injection, schedule: Q01DX009 (ip), vehicle: saline with Tween-80 109 % of control | [3] 115 % of control

CNC(=O)c1ccc(OC)cc1C1(O)c2ccccc2CCc2ccccc21
inactive: dose: 50.0 mg/kg/injection, schedule: Q01DX005 (ip), vehicle: Klucel (hydroxypropylcellulose) (HPC) 92 % of control | dose: 100.0 mg/kg/injection, schedule: Q01DX005 (ip), vehicle: Klucel (hydroxypropylcellulose) (HPC) 92 % of control | dose: 200.0 mg/kg/injection, schedule: Q01DX005 (ip), vehicle: Klucel (hydroxypropylcellulose) (HPC) 89 % of control

COc1ccc(OC)c(NC(=O)CCCC(=O)C(C#N)c2ccccc2C)c1 (stereo not drawn)
inactive: [5] 105 % of control | [6] 105 % of control | [7] 104 % of control

CCOC(=O)CN1C(=S)N(c2ccc(C)cc2)C(=Nc2ccc(C)cc2)C1=Nc1ccc(C)cc1
inactive: dose: 50.0 mg/kg/injection, schedule: Q01DX005 (ip), vehicle: Klucel + Tween-80 96 % of control | dose: 100.0 mg/kg/injection, schedule: Q01DX005 (ip), vehicle: Klucel + Tween-80 91 % of control | dose: 200.0 mg/kg/injection, schedule: Q01DX005 (ip), vehicle: Klucel + Tween-80 90 % of control

N#Cc1ccc(OCCCCOc2ccc(C#N)cc2)cc1
inactive: dose: 6.25 mg/kg/injection, schedule: Q01DX005 (ip), vehicle: saline with Tween-80 95 % of control | dose: 12.5 mg/kg/injection, schedule: Q01DX005 (ip), vehicle: saline with Tween-80 97 % of control | dose: 25.0 mg/kg/injection, schedule: Q01DX005 (ip), vehicle: saline with Tween-80 91 % of control

Cc1ccc2c(c1)C(=O)N(CC[P+](c1ccccc1)(c1ccccc1)c1ccccc1)C2=O
inactive: dose: 0.78 mg/kg/injection, schedule: Q01DX009 (ip), vehicle: water 100 % of control and 113 % of control | dose: 1.56 mg/kg/injection, schedule: Q01DX009 (ip), vehicle: water 117 % of control and 120 % of control | dose: 3.13 mg/kg/injection, schedule: Q01DX009 (ip), vehicle: water 121 % of control | dose: 12.5 mg/kg/injection, schedule: Q01DX009 (ip), vehicle: water 118 % of control

Cc1ccc(N2C(=O)CCSC2=S)cc1C
inactive: dose: 50.0 mg/kg/injection, schedule: Q01DX009 (ip), vehicle: suspension in saline 108 % of control | dose: 100.0 mg/kg/injection, schedule: Q01DX009 (ip), vehicle: suspension in saline 89 % of control | dose: 200.0 mg/kg/injection, schedule: Q01DX009 (ip), vehicle: suspension in saline 99 % of control

C=C1C[C@H](C2OC3OC(C)(C)OC3C2OCc2ccccc2)OC1=O (stereo partly drawn)
inactive: [8] 97 % of control | [9] 98 % of control | dose: 200.0 mg/kg/injection, schedule: Q01DX005 (ip), vehicle: saline with Tween-80 100 % of control

NC1=C(O)C(=O)C(c2c3ccccc3cc3ccccc23)O1 (stereo not drawn)
inactive: dose: 60.0 mg/kg/injection, schedule: Q01DX005 (ip), vehicle: Klucel (hydroxypropylcellulose) (HPC) 94 % of control | dose: 120.0 mg/kg/injection, schedule: Q01DX005 (ip), vehicle: Klucel (hydroxypropylcellulose) (HPC) 108 % of control | dose: 240.0 mg/kg/injection, schedule: Q01DX005 (ip), vehicle: Klucel (hydroxypropylcellulose) (HPC) 86 % of control

CC1=NN(c2ccccc2)C(=O)/C1=C1\SS/C(=C2\C(=O)N(c3ccccc3)N=C2C)S1
inactive: dose: 12.5 mg/kg/injection, schedule: Q01DX009 (ip), vehicle: Klucel (hydroxypropylcellulose) (HPC) 100 % of control | dose: 25.0 mg/kg/injection, schedule: Q01DX009 (ip), vehicle: Klucel (hydroxypropylcellulose) (HPC) 103 % of control | dose: 50.0 mg/kg/injection, schedule: Q01DX009 (ip), vehicle: Klucel (hydroxypropylcellulose) (HPC) 121 % of control and 90 % of control | dose: 100.0 mg/kg/injection, schedule: Q01DX009 (ip), vehicle: Klucel (hydroxypropylcellulose) (HPC) 92 % of control and 94 % of control | dose: 200.0 mg/kg/injection, schedule: Q01DX009 (ip), vehicle: Klucel (hydroxypropylcellulose) (HPC) 102 % of control

c1ccc(-c2n[se]c(-c3ccccc3)n2)cc1
inactive: dose: 12.5 mg/kg/injection, schedule: Q04DX002 (ip), vehicle: saline with Tween-80 102 % of control | dose: 25.0 mg/kg/injection, schedule: Q04DX002 (ip), vehicle: saline with Tween-80 95 % of control | dose: 50.0 mg/kg/injection, schedule: Q04DX002 (ip), vehicle: saline with Tween-80 93 % of control
